Earlier results as cited in US10577339B2, “Method for manufacturing furan-2,5-dicarboxylic acid (FDCA) from a salt solution” (PURAC BIOCHEM BV, priority 2015, dated 2020).

Settings: at 40° C.

O=S(=O)([O-])[O-].[Na+].[Na+] [Na2SO4, sodium sulphate]
saturation concentration: 32.8%
